Values joined by “and” are separate entries in the source; they are usually repeats but may differ in a detail not shown here. Equal values may be shown once.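 Dose response: 5 concentrations. Exposure: 48 h. Format: 96-well plates. Endpoint: linear interpolation; highest concentration if not reached. GI50: concentration for 50% inhibition of growth. Definition used: TGI = concentration required for complete inhibition of growth.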
How the values were obtained:
Assay in all cases: DTP human tumour cell line panel, 48 h
786-0 renal = test system: 786-0 renal
A498 renal = test system: A498 renal
A549 NSCLC = test system: A549 NSCLC
ACHN renal = test system: ACHN renal
BT-549 breast = test system: BT-549 breast
CAKI-1 renal = test system: CAKI-1 renal
CCRF-CEM leukemia = test system: CCRF-CEM leukemia
COLO 205 colon = test system: COLO 205 colon
DU-145 prostate = test system: DU-145 prostate
EKVX NSCLC = test system: EKVX NSCLC
HCC-2998 colon = test system: HCC-2998 colon
HCT-116 colon = test system: HCT-116 colon
HCT-15 colon = test system: HCT-15 colon
HL-60(TB) leukemia = test system: HL-60(TB) leukemia
HOP-62 NSCLC = test system: HOP-62 NSCLC
HOP-92 NSCLC = test system: HOP-92 NSCLC
HS 578T breast = test system: HS 578T breast
HT29 colon = test system: HT29 colon
IGROV1 ovarian = test system: IGROV1 ovarian
K-562 leukemia = test system: K-562 leukemia
KM12 colon = test system: KM12 colon
LOX IMVI melanoma = test system: LOX IMVI melanoma
M14 melanoma = test system: M14 melanoma
MALME-3M melanoma = test system: MALME-3M melanoma
MCF7 breast = test system: MCF7 breast
MDA-MB-231 breast = test system: MDA-MB-231 breast
MDA-MB-435 = test system: MDA-MB-435
MOLT-4 leukemia = test system: MOLT-4 leukemia
NCI-H226 lung = test system: NCI-H226 lung
NCI-H23 lung = test system: NCI-H23 lung
NCI-H460 lung = test system: NCI-H460 lung
NCI-H522 lung = test system: NCI-H522 lung
NCI/ADR-RES ovarian = test system: NCI/ADR-RES ovarian
OVCAR-3 ovarian = test system: OVCAR-3 ovarian
OVCAR-4 ovarian = test system: OVCAR-4 ovarian
OVCAR-5 ovarian = test system: OVCAR-5 ovarian
OVCAR-8 ovarian = test system: OVCAR-8 ovarian
PC-3 prostate = test system: PC-3 prostate
RPMI-8226 leukemia = test system: RPMI-8226 leukemia
RXF 393 renal = test system: RXF 393 renal
SF-268 CNS = test system: SF-268 CNS
SF-295 CNS = test system: SF-295 CNS
SF-539 CNS = test system: SF-539 CNS
SK-MEL-2 melanoma = test system: SK-MEL-2 melanoma
SK-MEL-28 melanoma = test system: SK-MEL-28 melanoma
SK-MEL-5 melanoma = test system: SK-MEL-5 melanoma
SK-OV-3 ovarian = test system: SK-OV-3 ovarian
SN12C renal = test system: SN12C renal
SNB-19 CNS = test system: SNB-19 CNS
SR leukemia = test system: SR leukemia
SW-620 colon = test system: SW-620 colon
T-47D breast = test system: T-47D breast
TK-10 renal = test system: TK-10 renal
U251 CNS = test system: U251 CNS
UACC-257 melanoma = test system: UACC-257 melanoma
UACC-62 melanoma = test system: UACC-62 melanoma
UO-31 renal = test system: UO-31 renal

CO/N=C/C=C\C(=O)N/C=C/C[C@H]1/C=C/[C@H](O)/C=C\C=C\c2cccc(O)c2C(=O)O1
GI50 (786-0 renal): 54 nM and 125 nM | TGI (786-0 renal): 15600 nM and 4030 nM | GI50 (A498 renal): 722 nM | TGI (A498 renal): 5420 nM | GI50 (A549 NSCLC): 111 nM and 82.2 nM | TGI (A549 NSCLC): > 100000 nM | GI50 (ACHN renal): 39 nM and 54.2 nM | TGI (ACHN renal): 15700 nM and 15200 nM | GI50 (BT-549 breast): < 19.7 nM and 24.7 nM | TGI (BT-549 breast): 5960 nM and 32900 nM | GI50 (CAKI-1 renal): < 10 nM | GI50 (CCRF-CEM leukemia): 62.1 nM and 62.2 nM | TGI (CCRF-CEM leukemia): > 77000 nM | GI50 (COLO 205 colon): 26.6 nM and 32.6 nM | TGI (COLO 205 colon): 16000 nM and 14100 nM | GI50 (DU-145 prostate): 81.6 nM and 41.3 nM | TGI (DU-145 prostate): > 54000 nM and 22900 nM | GI50 (EKVX NSCLC): 189 nM and 467 nM | TGI (EKVX NSCLC): > 100000 nM | GI50 (HCC-2998 colon): 430 nM and 208 nM | TGI (HCC-2998 colon): 31000 nM and 7540 nM | GI50 (HCT-116 colon): < 10 nM and 20.7 nM | TGI (HCT-116 colon): 12800 nM and 12900 nM | GI50 (HCT-15 colon): 62.4 nM and 44.7 nM | TGI (HCT-15 colon): 9700 nM and 7340 nM | GI50 (HL-60(TB) leukemia): 20.8 nM and 37.3 nM | GI50 (HOP-62 NSCLC): 266 nM and 65.9 nM | GI50 (HOP-92 NSCLC): < 10 nM and 19 nM | TGI (HOP-92 NSCLC): 74.5 nM and 492 nM | GI50 (HS 578T breast): 454 nM and 199 nM | TGI (HS 578T breast): > 100000 nM | GI50 (HT29 colon): < 10 nM and 39.5 nM | TGI (HT29 colon): 11200 nM and > 33700 nM | GI50 (IGROV1 ovarian): < 10 nM and 12.9 nM | TGI (IGROV1 ovarian): > 49000 nM and 30900 nM | GI50 (K-562 leukemia): 27.5 nM and 35.8 nM | TGI (K-562 leukemia): > 100000 nM | GI50 (KM12 colon): 40.7 nM and 52 nM | TGI (KM12 colon): 17200 nM and 15100 nM | GI50 (LOX IMVI melanoma): < 10 nM | TGI (LOX IMVI melanoma): 16 nM | GI50 (M14 melanoma): < 10 nM and 15.2 nM | TGI (M14 melanoma): 119 nM and 136 nM | GI50 (MALME-3M melanoma): 114 nM and 89.9 nM | TGI (MALME-3M melanoma): 5880 nM and 10600 nM | GI50 (MCF7 breast): 99.7 nM and 58.1 nM | TGI (MCF7 breast): > 100000 nM and 26700 nM | GI50 (MDA-MB-231 breast): < 10 nM | TGI (MDA-MB-231 breast): 6640 nM | GI50 (MDA-MB-435): 36.8 nM and 37 nM | TGI (MDA-MB-435): 1960 nM and 482 nM | GI50 (MOLT-4 leukemia): 43.9 nM and 79 nM | TGI (MOLT-4 leukemia): 14000 nM and 23500 nM | GI50 (NCI-H226 lung): 829 nM and 1310 nM | TGI (NCI-H226 lung): 13300 nM and 25800 nM | GI50 (NCI-H23 lung): 2650 nM and 463 nM | TGI (NCI-H23 lung): > 100000 nM and 36100 nM | GI50 (NCI-H460 lung): 36.4 nM and 58.3 nM | TGI (NCI-H460 lung): 11100 nM and 5340 nM | GI50 (NCI-H522 lung): 17.6 nM and 31.1 nM | TGI (NCI-H522 lung): 14300 nM and 7120 nM | GI50 (NCI/ADR-RES ovarian): 139 nM and 77.1 nM | TGI (NCI/ADR-RES ovarian): > 100000 nM | GI50 (OVCAR-3 ovarian): 457 nM and 653 nM | TGI (OVCAR-3 ovarian): 23800 nM and 27300 nM | GI50 (OVCAR-4 ovarian): 17300 nM and 2740 nM | TGI (OVCAR-4 ovarian): > 100000 nM | GI50 (OVCAR-5 ovarian): < 11 nM and 32.6 nM | TGI (OVCAR-5 ovarian): 14400 nM and > 54400 nM | GI50 (OVCAR-8 ovarian): 19.1 nM and 33 nM | TGI (OVCAR-8 ovarian): > 100000 nM | GI50 (PC-3 prostate): 94.6 nM and 47.7 nM | TGI (PC-3 prostate): 81400 nM and > 54900 nM | GI50 (RPMI-8226 leukemia): 26.5 nM and 30.9 nM | TGI (RPMI-8226 leukemia): 6800 nM and 2210 nM | GI50 (RXF 393 renal): 931 nM and 108 nM | TGI (RXF 393 renal): 34500 nM and 12900 nM | GI50 (SF-268 CNS): 204 nM and 137 nM | TGI (SF-268 CNS): > 100000 nM and 33800 nM | GI50 (SF-295 CNS): 22.9 nM and 19.8 nM | TGI (SF-295 CNS): 117 nM and 84.5 nM | GI50 (SF-539 CNS): 46 nM and 51.4 nM | TGI (SF-539 CNS): 4200 nM and 1830 nM | GI50 (SK-MEL-2 melanoma): 118 nM and 138 nM | TGI (SK-MEL-2 melanoma): 1060 nM and 1760 nM | GI50 (SK-MEL-28 melanoma): 303 nM and 309 nM | TGI (SK-MEL-28 melanoma): 13400 nM and 8660 nM | GI50 (SK-MEL-5 melanoma): < 10 nM | TGI (SK-MEL-5 melanoma): < 11.3 nM and 20.4 nM | TGI (SK-OV-3 ovarian): > 100000 nM | GI50 (SN12C renal): < 17.6 nM and 16.5 nM | TGI (SN12C renal): > 72900 nM | GI50 (SNB-19 CNS): 2810 nM and 3470 nM | TGI (SNB-19 CNS): > 100000 nM | GI50 (SR leukemia): < 10 nM | TGI (SR leukemia): 13800 nM and > 100000 nM | GI50 (SW-620 colon): 43.3 nM and 62.8 nM | TGI (SW-620 colon): 12400 nM and 11300 nM | GI50 (T-47D breast): < 10 nM and 27.3 nM | TGI (T-47D breast): 64700 nM and > 71700 nM | TGI (TK-10 renal): 45100 nM and > 100000 nM | GI50 (U251 CNS): 100 nM and 28.7 nM | TGI (U251 CNS): 62100 nM and 14700 nM | GI50 (UACC-257 melanoma): 24.8 nM and 49.3 nM | TGI (UACC-257 melanoma): 659 nM and 4170 nM | GI50 (UACC-62 melanoma): < 14.8 nM and 22 nM | TGI (UACC-62 melanoma): 79.5 nM and 60.5 nM | GI50 (UO-31 renal): 61 nM and 92.5 nM | TGI (UO-31 renal): 455 nM and 1230 nM

Source: PubChem BioAssay (NCI)
